Measurements as given in US4465843A, “Process for the preparation of derivatives of 2-pyrrole acetic acid with anti-inflammatory activity” (Laboratories Pharmedical SA, priority 1981, dated 1984).
Read-outs that look alike come from different tables or passages of the source.

How the values were obtained:
[1] = test system: paw edema as induced by carrageenin; test: anti-inflammatory activity, paw edema induced by carrageenin in the female rat (Winter et al); format: in vivo; conditions: po
[2] = test system: contorsions as induced by acetic acid; test: analgesic activity, contorsions induced by acetic acid by intraperitoneal route in the rat (Koster et al); format: in vivo; conditions: ip
[3] = anti-inflammatory activity, carrageenin paw edema, female rat, p.os, read-out: ED50
[4] = analgesic activity, acetic acid contorsions (i.p.), rat, p.os, read-out: ED50

| Structure (SMILES) | ED50 [1, 3] | ED50 [2, 4] | ED50 ([1]; Rattus norvegicus) | ED50 ([2]; Rattus norvegicus) |
| --- | --- | --- | --- | --- |
| Cc1cc(CC(=O)O)n(C)c1C(=O)c1ccc(Cl)cc1 [Example 2, acetic acid] | 1.7 mg/kg | 2.5 mg/kg |  |  |
| CCn1c(CC(=O)O)cc(C)c1C(=O)c1ccc(Cl)cc1 [Example 3] | 21.2 mg/kg | 31 mg/kg |  |  |
| CCn1c(CC(=O)O)cc(C)c1C(=O)c1ccccc1 [Example 4] | 48 mg/kg | 82 mg/kg |  |  |
| COc1ccc2c(c1)c(CC(=O)O)c(C)n2C(=O)c1ccc(Cl)cc1 [Indomethacin, reference compound] |  |  | 2.85 mg/kg |  |
| CC(=O)Oc1ccccc1C(=O)O [acetyl salicylic acid, reference compound] |  |  |  | 110 mg/kg |
